Assay results reported in patent publication EP2249889B1, “CRYSTALLINE SURGICAL IMPLANT COMPOSITE MATERIALS AND KITS AND METHODS OF MANUFACTURE” (Sandvik Intellectual Property AB, priority 2008, dated 2009).
Values after ≈ are worked out from the molar mass of the structure shown.

Experiments:
[1] = tested on: Staphylococcus aureus strain Cowan I; test: Inhibition zones of bacterial growth in bacteria agar around antibiotic loaded HA coated plates; type: cell-based; details: loading 15 minutes to 24 hours; release in PBS 15 minutes to 24 hours before agar; incubated 37°C 18 hours
Experimental: The incorporation of antibiotics was preformed by soaking the HA coated plates in 10 ml PBS containing 50 µg of either Tobramycin, Cephalotin, Amoxicillin or Gentamicin sulfate (Sigma-Aldrich Company Ltd.). The drug loading was performed at room temperature in 50 ml conical test tubes for four different soaking times between 15 minutes and 24 hours.
After incorporation of antibiotics, the plates were immediately transferred to new tubes filled with 40 ml of PBS preheated to 37°C in order to let the incorporated drug leak out for various time intervals before monitoring the antibacterial effect of the drug remaining in the coatings. After either 15 minutes, 60 minutes or 24 hours, the plates were removed and dried at room temperature for further analysis of the remaining antibacterial effect in the Staphylococcus aureus agar described below.
A Mueller-Hinton broth (Merck) containing 0.8% Agar was prepared by dissolving the powder in de-ionized water and sterilized by autoclaving at 121°C for 20 minutes. The broth was then tempered to 40°C in a water bath. Staphylococcus aureus strain Cowan I (NCTC 8530, National Collection of Type Cultures, London, UK) in a PBS suspension was added directly to the broth giving it a final optical density at 600 nm of 0.005 (corresponding to approximately 5x10^6 cfu/ml). The mixture was mixed to homogenously distribute the bacteria in the substrate and then transferred to Petri dishes. The dishes were filled to a depth of 10 mm (50 ml) with the bacterial broth. As the agar stiffened at room temperature, the titanium plates were stuck down in the agar at a right angle to the surface, having both sides in contact with the bacterial substrate. The Petri dishes were then incubated at 37°C for 18 hours. A HA coated reference plate without any antibiotics was also tested. The inhibition zones of bacterial growth formed around the plates were photographed by an imaging instrument (Geldoc 2000, Bio-Rad).

[2] = type: physicochemical; details: for anticipated release time: assuming constant release rate until coatings are emptied, including the 22 hours of release before hydrochloric acid treatment; for drug release rate: from HA coating in PBS at room temperature, between 2 and 22 hours after start; for duration of initial rapid drug release (burst): from HA coatings, loading times 15 minutes, 1 hour, 24 hours
Experimental: The drug loading was performed at room temperature in 50 ml conical test tubes for four different soaking times between 15 minutes and 24 hours. […] The liquid was circulated through a cell in which the drug concentration was detected. After the release in PBS, the HA coatings soaked for 24 hours in the antibiotic solutions were dissolved by lowering the pH of the PBS to 2 by addition of hydrochloric acid. This was done to release and measure the amount of remaining drugs still present in the coatings after 22 hours of release. To relate the antibiotics concentration released to the antibacterial effect, antimicrobial susceptibility tests (E-test, AB Biodisk, Sweden) for Amoxicillin and Cephalothin was performed on strain S aureus Cowan I and on Staphylococcus epidermidis Kx293A1 (Department of Microbiology, Swedish University of Agricultural Sciences).

[3] = Release and content of Amoxicillin from HA coatings loaded with pamidronate and Amoxicillin (methods of Examples 8 and 9); type: physicochemical
S aureus Cowan I = test: E-test antimicrobial susceptibility test (MIC); type: cell-based; details: Staphylococcus aureus, inhibiting bacteria in 1 ml broth
Experimental: (§1) The drug release rate was analyzed using UV spectroscopy (Shimadzu 1650PC, Shimadzu Corp.) by immersing plates that had been soaked in Amoxicillin and Cephalothin for 15 minutes, 1 hour and 24 hours in 8.2 ml of either water or PBS at room temperature. The release was measured (using a wavelength Of 230 nm for Amoxicillin and 239 nm for Cephalothin) in water for 1 hour to investigate the initial release and then in PBS for 22 hours to investigate the slow release after the initial burst. The liquid was circulated through a cell in which the drug concentration was detected. After the release in PBS, the HA coatings soaked for 24 hours in the antibiotic solutions were dissolved by lowering the pH of the PBS to 2 by addition of hydrochloric acid. This was done to release and measure the amount of remaining drugs still present in the coatings after 22 hours of release. To relate the antibiotics concentration released to the antibacterial effect, antimicrobial susceptibility tests (E-test, AB Biodisk, Sweden) for Amoxicillin and Cephalothin was performed on strain S aureus Cowan I and on Staphylococcus epidermidis Kx293A1 (Department of Microbiology, Swedish University of Agricultural Sciences).
(§2) Table 1 presents the concentration of Amoxicillin and Cephalothin that has to be present to ensure killing of S. aureus and S. epidermidis, as divulged from the antimicrobial susceptibility tests. Table 1: Result from E-test for antimicrobial susceptibility testing, determining the minimum inhibitory concentration (MIC) of antimicrobial agents against microorganisms (inhibiting bacteria in 1 ml broth).

[4] = tested on: Staphylococcus epidermidis Kx293A1; test: E-test antimicrobial susceptibility test (MIC); type: cell-based; details: inhibiting bacteria in 1 ml broth
Experimental: as §1, §2

Row | Molecule | antibacterial effect (inhibition zone, clear agar closest to the plates) [1] | anticipated release time [2] [h] | drug release rate [2] [µg/h·cm^2] | duration of initial rapid drug release (burst) [2] | time for which a therapeutically significant dose of amoxicillin was released ([3]; Example 10: co-loading, 10 ml PBS, 6 mg pamidronate disodium salt hydrate, 100 µg Amoxicillin, 50 °C, 25 minutes, rinsed 5 minutes in PBS) [days] | time for which a therapeutically significant dose of amoxicillin was released ([3]; Example 11: sequential loading, 7 mg pamidronate 40°C 12 minutes, then 70 µg Amoxicillin 40°C 15 minutes, soaked in PBS 7 minutes) [days] | MIC (S aureus Cowan I) [µg/mL] | MIC [4] [µg/mL] | amount of antibiotics remaining in the coating after 22 hours of release ([2]; buffer)
1 | Gentamicin sulfate | the antibiotic effect was preserved | – | – | – | – | – | – | – | –
2 | NC[C@H]1O[C@H](O[C@H]2[C@H](O)[C@@H](O[C@H]3O[C@H](CO)[C@@H](O)[C@H](N)[C@H]3O)[C@H](N)C[C@@H]2N)[C@H](N)C[C@@H]1O [Tobramycin] | the antibiotic effect was preserved | – | – | – | – | – | – | – | –
3 | CC1(C)S[C@@H]2[C@H](NC(=O)[C@H](N)c3ccc(O)cc3)C(=O)N2[C@H]1C(=O)O [Amoxicillin] | the antibiotic effect was preserved | 27 | 0.42±0.10 | less than 10 minutes | 7 | 6 | 0.064 (≈ 0.175 µM) | 0.19 (≈ 0.52 µM) | –
4 | CC(=O)OCC1=C(C(=O)O)N2C(=O)[C@@H](NC(=O)Cc3cccs3)[C@H]2SC1 [Cephalothin] | the antibiotic effect was preserved | 63 | 0.22±0.06 | less than 10 minutes | – | – | 0.064 (≈ 0.161 µM) | 0.064 (≈ 0.161 µM) | ~ 18 µg
